# Columns and labels:
# human TLR7 = target: T1, human TLR7 (Homo sapiens, UniProt Q9NYK1); assay: HEK-Blue TLR7 reporter assay (SEAP reporter); assay type: cell-based; details: HEK-Blue TLR7 cells, 18 h treatment, SEAP readout; average if more than one assay; read-out: TLR7 Agonism HEK Blue ™ Assay EC50
# T1 construct: host or cells: HEK-Blue TLR7 cells (engineered human embryonic kidney cells)
# T1 sequence (Q9NYK1 27-1049): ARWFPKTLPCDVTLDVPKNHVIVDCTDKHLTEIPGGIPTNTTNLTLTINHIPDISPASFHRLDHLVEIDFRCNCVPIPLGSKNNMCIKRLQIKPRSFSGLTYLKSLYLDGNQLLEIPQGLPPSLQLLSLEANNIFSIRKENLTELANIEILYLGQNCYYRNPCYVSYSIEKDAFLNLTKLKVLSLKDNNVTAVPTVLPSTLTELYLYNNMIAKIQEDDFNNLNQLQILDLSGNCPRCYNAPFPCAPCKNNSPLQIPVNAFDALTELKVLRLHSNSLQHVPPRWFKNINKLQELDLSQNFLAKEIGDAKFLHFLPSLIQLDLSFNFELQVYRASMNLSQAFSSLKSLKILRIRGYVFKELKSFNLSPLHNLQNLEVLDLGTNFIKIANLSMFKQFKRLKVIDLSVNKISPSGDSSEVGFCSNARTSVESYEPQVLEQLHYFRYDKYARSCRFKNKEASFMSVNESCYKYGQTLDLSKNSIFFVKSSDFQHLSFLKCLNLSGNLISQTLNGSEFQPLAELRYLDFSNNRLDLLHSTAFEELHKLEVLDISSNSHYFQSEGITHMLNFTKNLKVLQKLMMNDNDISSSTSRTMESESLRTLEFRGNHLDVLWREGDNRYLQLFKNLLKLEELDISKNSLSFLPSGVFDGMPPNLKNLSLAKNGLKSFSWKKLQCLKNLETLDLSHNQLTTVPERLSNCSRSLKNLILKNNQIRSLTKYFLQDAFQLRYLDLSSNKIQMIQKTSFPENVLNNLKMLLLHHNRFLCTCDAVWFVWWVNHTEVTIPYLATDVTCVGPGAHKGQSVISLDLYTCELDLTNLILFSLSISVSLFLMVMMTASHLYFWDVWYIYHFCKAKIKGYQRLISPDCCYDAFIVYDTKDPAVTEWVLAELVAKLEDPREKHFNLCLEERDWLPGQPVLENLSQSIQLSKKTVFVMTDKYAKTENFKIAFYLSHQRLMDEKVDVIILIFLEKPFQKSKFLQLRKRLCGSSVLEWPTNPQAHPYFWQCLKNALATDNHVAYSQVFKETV
# Text: Table A presents biological activity data for compounds disclosed herein. One set of data relates TLR7 agonism activity using the HEK-Blue™ TLR7 reporter assay, as described in Example 11 hereinbelow. Another set of data relates to the induction of interleukin 6 (IL-6), a cytokine that plays an important role in the TLR7 pathway. […] In some instances, more that one TLR7 agonism or IL-6 induction assay was made; if so, the reported value is an average.
# This example describes a method for assaying TLR7 agonist activity of the compounds disclosed in this specification.
# HEK-Blue™ TLR7 cells were added to each well of a 384-well tissue-culture plate (15,000 cells per well) and incubated 16-18 h at 37° C., 5% CO2. Compounds (100 nl) were dispensed into wells containing the HEK-Blue™ TLR cells and the treated cells were incubated at 37° C., 5% CO2. After 18 h treatment ten microliters of freshly-prepared Quanti-Blue™ reagent (Invivogen) was added to each well, incubated for 30 min (37° C., 5% CO2) and SEAP levels measured using an Envision plate reader (OD=620 nm). […] EC50's can be determined with software such as Graphpad Prism™.
# interleukin 6 (IL-6) = assay: Interleukin 6 induction assay in human whole blood (AlphaLISA); assay type: cell-based; details: Homo sapiens, 20 h, 20 h at 37° C., 100% set by resiquimod reference at 10 μM, average if more than one assay, read-out: IL-6 Induction EC50 (nM) (normalized 10 μM)
# Text: Table A presents biological activity data for compounds disclosed herein. One set of data relates TLR7 agonism activity using the HEK-Blue™ TLR7 reporter assay, as described in Example 11 hereinbelow. Another set of data relates to the induction of interleukin 6 (IL-6), a cytokine that plays an important role in the TLR7 pathway. […] In some instances, more that one TLR7 agonism or IL-6 induction assay was made; if so, the reported value is an average. This example describes a method for assaying interleukin 6 (IL 6) induction by compounds disclosed in this specification. Compounds suspended in DMSO were transferred to individual wells of a Matrix Technologies clear, V-bottom 384-well plate using ECHO acoustic liquid handling technology (25 nL per well). Human whole-blood samples (25 uL) were added to each well using a CyBio FeliX liquid handling instrument and the plate was shaken on a plate shaker for three minutes before incubating the reaction mixtures at 37° C. for 20 h. Basel RPMI 1640 medium (supplemented with L-glutamine) was then added to each well (25 uL per well) prior to liberating plasma from each sample by centrifugation (450×g, 5 min, ambient temperature). Treated plasma samples (3 uL) were subsequently transferred to individual wells of a white, shallow, 384-well ProxiPlate (PerkinElmer) using the FeliX liquid handling instrument and their IL6 levels were measured using AlphaLISA technology as described by the manufacturer (PerkinElmer).
EC50 (human TLR7) [nM],Structure (SMILES),EC50 (interleukin 6 (IL-6)) [nM]
68,"Nc1nc2nc3c1nc(O)n3Cc1ccc(O)c(c1)C/C=C/CCO2 [Compound B3, reference compound]",400
17,"Nc1nc2nc3c1nc(O)n3Cc1ccc(O)c(c1)C/C=C\CCO2 [Compound B4, reference compound]",960
4,Nc1nc2nc3c1nc(O)n3Cc1ccc(Oc3ccc(CNC4CC4)cc3)c(c1)C/C=C/CCO2 [IIa-02],5.2
5.3,Nc1nc2nc3c1nc(O)n3Cc1ccc(Oc3cccc(CNC4CC4)c3)c(c1)C/C=C/CCO2 [IIa-03],47
0.91,Nc1nc2nc3c1nc(O)n3Cc1ccc(Oc3ccc(CNC4CC4)cc3)c(c1)C/C=C\CCO2 [IIa-04],4.4
7.2,Nc1nc2nc3c1nc(O)n3Cc1ccc(Oc3cccc(CNC4CC4)c3)c(c1)C/C=C\CCO2 [IIa-05],18
0.67,Nc1nc2nc3c1nc(O)n3Cc1ccc(-c3cnn(CCNC4CC4)c3)c(c1)C/C=C/CCO2 [IIb-01],42
0.35,Nc1nc2nc3c1nc(O)n3Cc1ccc(-c3cnn(CCNC4CC4)c3)c(c1)C/C=C\CCO2 [IIb-02],1.3
2.9,Nc1nc2nc3c1nc(O)n3Cc1ccc(-c3cnn(CCNC4CC4)c3)c(c1)CCCCCO2 [IIb-03],65
0.28,Nc1nc2nc3c1nc(O)n3Cc1ccc(-c3ccc(CNC4CC4)nc3)c(c1)C/C=C/CCO2 [IIb-04],10
0.22,Nc1nc2nc3c1nc(O)n3Cc1ccc(-c3ccc(CNC4CCC4)nc3)c(c1)C/C=C/CCO2 [IIb-05],0.62
21,Nc1nc2nc3c1nc(O)n3Cc1ccc(-c3cn[nH]c3)c(c1)C/C=C/CCO2 [IIb-06],570
0.22,Nc1nc2nc3c1nc(O)n3Cc1ccc(-c3cnn(CCNC4CCC4)c3)c(c1)C/C=C/CCO2 [IIb-07],1.6
1.7,Nc1nc2nc3c1nc(O)n3Cc1ccc(-c3cnn(CCNC4CCC4)c3)c(c1)CCCCCO2 [IIb-08],6.2
0.35,Nc1nc2nc3c1nc(O)n3Cc1ccc(-c3cnn(CCNC4CCC4)c3)c(c1)C/C=C\CCO2 [IIb-09],2.1
1.1,Nc1nc2nc3c1nc(O)n3Cc1ccc(-c3ccc(CNC4CCC4)cc3)c(c1)C/C=C/CCO2 [IIb-10],0.41
0.33,Nc1nc2nc3c1nc(O)n3Cc1ccc(-c3ccc(CNC4CCC4)cc3)c(c1)C/C=C\CCO2 [IIb-11],0.68
0.24,Nc1nc2nc3c1nc(O)n3Cc1ccc(-c3cnc(CNC4CCC4)s3)c(c1)C/C=C/CCO2 [IIb-13],4.3
3,Nc1nc2nc3c1nc(O)n3Cc1ccc(-c3cc(CNC4CCC4)[nH]n3)c(c1)C/C=C/CCO2 [IIb-14],5.3
0.65,Nc1nc2nc3c1nc(O)n3Cc1ccc(-c3cc(CNC4CCC4)[nH]n3)c(c1)C/C=C\CCO2 [IIb-15],4.7
1.2,Nc1nc2nc3c1nc(O)n3Cc1ccc(-c3ccc(CNC4CCC4)cc3)c(c1)C/C=C/CCCO2 [IIb-16],3.6
0.42,Nc1nc2nc3c1nc(O)n3Cc1ccc(-c3ccc(CNC4COC4)cc3)c(c1)C/C=C\CCO2 [IIb-33],–
1.5,Nc1nc2nc3c1nc(O)n3Cc1ccc(-c3cnn(C4CNC4)c3)c(c1)C/C=C/CCO2 [IIb-35],–
1,Nc1nc2nc3c1nc(O)n3Cc1ccc(-c3cnn(C4CCNCC4)c3)c(c1)C/C=C/CCO2 [IIb-36],–
1.6,Nc1nc2nc3c1nc(O)n3Cc1ccc(-c3cnn(CC(=O)NC4CNC4)c3)c(c1)C/C=C\CCO2 [IIb-39],–

# Further lines, the compound ahead of its results:
Structure (SMILES),EC50 (human TLR7) [nM],EC50 (interleukin 6 (IL-6)) [nM]
"Nc1nc2nc3c1nc(O)n3Cc1cccc(c1)C/C=C/CCO2 [Compound B1, reference compound]",210,–
"Nc1nc2nc3c1nc(O)n3Cc1cccc(c1)C/C=C\CCO2 [Compound B2, reference compound]",33,–
"Nc1nc2nc3c1nc(O)n3Cc1ccc(O)c(c1)CCCCCO2 [Compound B5, reference compound]",580,–
Nc1nc2nc3c1nc(O)n3Cc1ccc(Oc3ccc(CO)cc3)c(c1)C/C=C/CCO2 [IIa-01],51,–
Nc1nc2nc3c1nc(O)n3Cc1ccc(Oc3ccc(CNC4CCC4)cc3)c(c1)C/C=C\CCO2 [IIa-06],1,2.2
Nc1nc2nc3c1nc(O)n3Cc1ccc(Oc3cccc(CNC4CCC4)c3)c(c1)C/C=C\CCO2 [IIa-07],4.2,2.9
COCCNCc1ccc(Oc2ccc3cc2C/C=C/CCOc2nc(N)c4nc(O)n(c4n2)C3)cc1 [IIa-09],2.2,1.9
COC(=O)CNCc1ccc(Oc2ccc3cc2C/C=C/CCOc2nc(N)c4nc(O)n(c4n2)C3)cc1 [IIa-10],4.3,50
Nc1nc2nc3c1nc(O)n3Cc1ccc(Oc3ccc(CNC4CC4)cc3)c(c1)CCCCCO2 [IIa-11],6.6,5.5
Nc1nc2nc3c1nc(O)n3Cc1ccc(Oc3cccc(CNC4CC4)c3)c(c1)CCCCCO2 [IIa-12],29,110
Nc1nc2nc3c1nc(O)n3Cc1cc(cc(Oc3ccc(CNC4CCC4)cc3)c1)C/C=C\CCO2 [IIa-13],0.94,13
Nc1nc2nc3c1nc(O)n3Cc1cc(cc(Oc3cccc(CNC4CCC4)c3)c1)C/C=C/CCO2 [IIa-14],19,140
Nc1nc2nc3c1nc(O)n3Cc1cc(cc(Oc3ccc(CNC4CC4)cc3)c1)C/C=C\CCO2 [IIa-15],9.2,57
Nc1nc2nc3c1nc(O)n3Cc1cc(cc(Oc3ccc(CNC4CCC4)cc3)c1)CCCCCO2 [IIa-16],42,250
Nc1nc2nc3c1nc(O)n3Cc1cc(cc(Oc3ccc(CNC4CCC4)cc3)c1)C/C=C/CCO2 [IIa-17],8.5,44
Nc1nc2nc3c1nc(O)n3Cc1cc(cc(Oc3ccc(CNC4CC4)cc3)c1)C/C=C/CCO2 [IIa-18],10,32
Nc1nc2nc3c1nc(O)n3Cc1ccc(Oc3ccc(C(=O)NC4CNC4)cc3)c(c1)C/C=C\CCO2 [IIa-19],25,95
Nc1nc2nc3c1nc(O)n3Cc1ccc(Oc3cccc(C(=O)NC4CNC4)c3)c(c1)C/C=C\CCO2 [IIa-20],15,91
Nc1nc2nc3c1nc(O)n3Cc1ccc(-c3ccc(CNC4CCC4)cc3)c(c1)CCCCCO2 [IIb-12],4.2,13
"CCOCc1nc2c(N)nc3ccccc3c2n1CC(C)(C)O [Resiquimod, resiquimod, reference compound]",–,350
